Data taken from US20020136711A1, “Compositions used in human treatment” (priority 1998, published 2002).

Key:
skin flushing or rash = conditions: larger doses of niacin
Source text: Typically, the form of niacin used may produce a flushing, redness or rash to the skin when consumed in large doses. […] Inositol is molecularly bonded to niacin, and in conjunction therewith serves to slow the absorption of nicotinic acid.

[1] = clinical trials: absorbability of chelated potassium; format: in vivo, human; conditions: potassium bonded or chelated with an amino acid or a simple sugar
Source text: A preferred aspect of the present invention is the administering of potassium when bonded or chelated with an amino acid or a simple sugar.

Row | Compound | side-effects (flushing, redness or rash to the skin) at larger doses (skin flushing or rash) | absorbability and assimilation into the bloodstream [1]
1 | O=C(O[C@H]1[C@H](OC(=O)c2cccnc2)[C@@H](OC(=O)c2cccnc2)[C@H](OC(=O)c2cccnc2)[C@@H](OC(=O)c2cccnc2)[C@H]1OC(=O)c1cccnc1)c1cccnc1 [niacin inositol hexanicotinate] | no side-effects | –
2 | O=C([O-])[C@H](O)[C@@H](O)[C@H](O)[C@H](O)CO.[K+] [potassium gluconate] | – | better absorbability and assimilation into the bloodstream
